Each structure is given as a SMILES string. *1 amine or outer side, *2 acyl side, *3 side chain or, on linkers, in order; H or OH if unused. Where a SMILES comes first, the peptide text is derived from it. Side-chain parts run from the residue outwards. [ ]: non-standard residue; d: D form. X4 = CC(C)C[C@@H](CN([C@@H](CCCN=C(N)N)C(=O)[*:2])[*:1])N[*:3]

Broadly, the IC50 is the concentration that inhibits the measured activity by half. Low readings indicate higher potency, high ones lower potency.

The target of the test is Delta-type opioid receptor (Cavia porcellus). In words: Binding affinity against delta opioid receptor of Guinea pig brain homogenate using [3H]c[D-Pen2,p-Cl-Phe4,D-Pen5]enkephalin.
For the compound `CC[C@H](C)[C@H](NC(=O)[C@H](CCCN=C(N)N)NC[C@H](CCCCN)NC(=O)[C@H](CC(C)C)NC(=O)[C@H](Cc1ccccc1)NC(=O)CNC(=O)CNC(=O)[C@@H](N)Cc1ccc(O)cc1)C(=O)N[C@@H](CCCN=C(N)N)C(=O)N1CCC[C@H]1C(=O)N[C@@H](CCCCN)C(N)=O`, the half-maximal inhibitory concentration (IC50) was 53 nM.
For the compound `CC[C@H](C)[C@H](NC(=O)[C@H](CCCN=C(N)N)NC(=O)[C@H](CCCN=C(N)N)NC(=O)[C@H](CC(C)C)NC(=O)[C@H](Cc1ccccc1)NC(=O)CNC(=O)CNC[C@@H](N)Cc1ccc(O)cc1)C(=O)N[C@@H](CCCN=C(N)N)C(=O)N1CCC[C@H]1C(=O)N[C@@H](CCCCN)C(N)=O`, the IC50 came out at 198 nM.
To `CC[C@H](C)[C@H](NC(=O)[C@H](CCCN=C(N)N)NC(=O)[C@H](CCCN=C(N)N)NC[C@H](CC(C)C)NC(=O)[C@H](Cc1ccccc1)NC(=O)CNC(=O)CNC(=O)[C@@H](N)Cc1ccc(O)cc1)C(=O)N[C@@H](CCCN=C(N)N)C(=O)N1CCC[C@H]1C(=O)N[C@@H](CCCCN)C(N)=O` (H-[X4]([Phe-Gly-Gly-Tyr])RIRPK-NH2) belongs 32 nM.

For the origin of these results see BindingDB's records for doi:10.1021/jm00018a006 (University of Arizona, 1995).
